Data published in ChEMBL document CHEMBL5523701, “Structure-based discovery of small molecule inhibitors of FKBP51-Hsp90 protein-protein interaction” (Eur J Med Chem, 2024).

Columns and labels:
[1] = molecular target: T1, E3 ubiquitin-protein ligase CHIP (Homo sapiens, UniProt Q9UNE7); assay: Inhibition of GST-tagged human CHIP expressed in Escherichia coli BL21 (DE3) using NH2-EDASRMEEVD-COOH peptide as substrate preincubated for 15 mins followed by substrate addition measured after 15 mins by Alpha Screen assay
T1 sequence (Q9UNE7 whole entry): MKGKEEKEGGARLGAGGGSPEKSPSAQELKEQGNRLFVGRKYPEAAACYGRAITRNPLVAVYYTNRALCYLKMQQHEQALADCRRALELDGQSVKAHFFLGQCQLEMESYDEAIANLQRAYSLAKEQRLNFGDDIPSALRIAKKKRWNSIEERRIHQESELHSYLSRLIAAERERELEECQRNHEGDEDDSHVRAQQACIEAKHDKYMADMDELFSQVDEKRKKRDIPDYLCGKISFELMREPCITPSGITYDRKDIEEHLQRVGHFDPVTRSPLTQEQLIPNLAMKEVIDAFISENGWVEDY

[2] = molecular target: Peptidyl-prolyl cis-trans isomerase D (Homo sapiens, UniProt Q08752); assay: Inhibition of GST-tagged human CYP40 expressed in Escherichia coli BL21 (DE3) using NH2-EDASRMEEVD-COOH peptide as substrate preincubated for 15 mins followed by substrate addition measured after 15 mins by Alpha Screen assay
Peptidyl-prolyl cis-trans isomerase D, sequence (Q08752 whole entry): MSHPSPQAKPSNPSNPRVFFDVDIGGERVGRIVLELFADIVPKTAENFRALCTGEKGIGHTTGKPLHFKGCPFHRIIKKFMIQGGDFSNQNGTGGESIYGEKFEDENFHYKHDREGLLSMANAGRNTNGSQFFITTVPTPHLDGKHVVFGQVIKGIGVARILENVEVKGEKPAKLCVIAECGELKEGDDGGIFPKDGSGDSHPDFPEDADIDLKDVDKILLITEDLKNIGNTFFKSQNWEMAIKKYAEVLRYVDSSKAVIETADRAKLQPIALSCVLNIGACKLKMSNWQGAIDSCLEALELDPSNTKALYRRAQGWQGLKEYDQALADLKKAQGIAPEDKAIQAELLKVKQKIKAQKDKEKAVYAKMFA

[3] = molecular target: T2, Mitochondrial import receptor subunit TOM70 (Homo sapiens, UniProt O94826); assay: Inhibition of GST-tagged human TOM70 expressed in Escherichia coli BL21 (DE3) using NH2-EDASRMEEVD-COOH peptide as substrate preincubated for 15 mins followed by substrate addition measured after 15 mins by Alpha Screen assay
T2 sequence (O94826 whole entry): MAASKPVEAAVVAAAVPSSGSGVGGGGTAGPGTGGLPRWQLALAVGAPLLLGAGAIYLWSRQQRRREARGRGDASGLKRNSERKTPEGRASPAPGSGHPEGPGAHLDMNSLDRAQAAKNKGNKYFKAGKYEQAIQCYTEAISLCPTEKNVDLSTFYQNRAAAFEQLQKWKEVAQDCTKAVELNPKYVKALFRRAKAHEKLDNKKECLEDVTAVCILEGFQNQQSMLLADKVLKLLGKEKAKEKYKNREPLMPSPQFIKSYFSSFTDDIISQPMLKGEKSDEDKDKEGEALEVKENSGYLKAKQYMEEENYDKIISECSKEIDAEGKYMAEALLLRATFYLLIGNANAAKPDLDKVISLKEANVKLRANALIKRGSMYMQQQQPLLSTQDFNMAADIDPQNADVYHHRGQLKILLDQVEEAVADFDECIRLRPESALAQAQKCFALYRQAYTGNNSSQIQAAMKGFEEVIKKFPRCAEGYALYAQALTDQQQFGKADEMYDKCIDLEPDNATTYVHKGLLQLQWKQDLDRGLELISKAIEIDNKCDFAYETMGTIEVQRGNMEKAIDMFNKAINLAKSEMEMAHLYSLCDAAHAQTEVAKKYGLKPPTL

[4] = molecular target: Stress-induced-phosphoprotein 1 (Homo sapiens, UniProt P31948); assay: Inhibition of GST-tagged human HOP expressed in Escherichia coli BL21 (DE3) using NH2-EDASRMEEVD-COOH peptide as substrate preincubated for 15 mins followed by substrate addition measured after 15 mins by Alpha Screen assay
Stress-induced-phosphoprotein 1, sequence (P31948 whole entry): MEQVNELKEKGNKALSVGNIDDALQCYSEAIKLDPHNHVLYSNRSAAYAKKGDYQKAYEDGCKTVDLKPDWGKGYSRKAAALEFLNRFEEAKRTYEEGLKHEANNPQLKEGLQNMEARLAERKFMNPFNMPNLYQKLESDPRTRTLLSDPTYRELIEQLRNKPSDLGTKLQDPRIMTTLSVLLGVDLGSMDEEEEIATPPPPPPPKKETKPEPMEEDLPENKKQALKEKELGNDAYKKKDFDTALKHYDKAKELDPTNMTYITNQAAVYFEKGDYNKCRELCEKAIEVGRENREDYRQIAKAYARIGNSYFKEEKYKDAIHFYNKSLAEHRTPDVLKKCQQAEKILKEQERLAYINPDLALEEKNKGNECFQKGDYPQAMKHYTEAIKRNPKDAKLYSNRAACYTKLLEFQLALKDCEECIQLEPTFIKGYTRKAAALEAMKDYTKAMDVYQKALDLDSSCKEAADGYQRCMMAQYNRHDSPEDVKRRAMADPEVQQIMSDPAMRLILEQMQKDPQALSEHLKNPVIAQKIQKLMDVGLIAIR

[5] = molecular target: T3, Peptidyl-prolyl cis-trans isomerase FKBP5 (Homo sapiens, UniProt Q13451); assay: Inhibition of GST-tagged human FKBP51 expressed in Escherichia coli BL21 (DE3) using NH2-EDASRMEEVD-COOH peptide as substrate preincubated for 15 mins followed by substrate addition measured after 15 mins by Alpha Screen assay
T3 sequence (Q13451 whole entry): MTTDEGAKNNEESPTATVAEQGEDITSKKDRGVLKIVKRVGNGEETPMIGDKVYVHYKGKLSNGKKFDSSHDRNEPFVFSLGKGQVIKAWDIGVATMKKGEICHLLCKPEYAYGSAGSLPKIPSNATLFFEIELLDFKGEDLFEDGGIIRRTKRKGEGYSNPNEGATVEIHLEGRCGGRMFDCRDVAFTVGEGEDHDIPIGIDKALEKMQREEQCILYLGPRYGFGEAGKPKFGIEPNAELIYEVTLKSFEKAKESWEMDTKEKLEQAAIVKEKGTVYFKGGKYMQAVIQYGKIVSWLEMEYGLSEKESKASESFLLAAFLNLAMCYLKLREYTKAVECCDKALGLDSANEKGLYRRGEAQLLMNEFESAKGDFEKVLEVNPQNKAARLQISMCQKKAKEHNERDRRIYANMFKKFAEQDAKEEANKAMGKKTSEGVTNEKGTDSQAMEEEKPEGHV

HEK293 = assay: Induction of cell proliferation in HEK293 cells at 10 uM measured for 1 to 4 hrs by MTT assay relative to control; format: functional, Homo sapiens; details: time 1-4 hrs
[6] = Inhibition of GST-tagged FKBP51 N381Y mutant (unknown origin) using NH2-EDASRMEEVD-COOH peptide as substrate preincubated for 15 mins followed by substrate addition measured after 15 mins by Alpha Screen assay; parameters: species or system Homo sapiens
[7] = molecular target: T4, Peptidyl-prolyl cis-trans isomerase FKBP4 (Homo sapiens, UniProt Q02790); assay: Binding affinity to GST-tagged human FKBP52 expressed in Escherichia coli BL21 (DE3) immobilized in CM7 sensor chip assessed as equilibrium dissociation constant by SPR analysis
T4 sequence (Q02790 whole entry): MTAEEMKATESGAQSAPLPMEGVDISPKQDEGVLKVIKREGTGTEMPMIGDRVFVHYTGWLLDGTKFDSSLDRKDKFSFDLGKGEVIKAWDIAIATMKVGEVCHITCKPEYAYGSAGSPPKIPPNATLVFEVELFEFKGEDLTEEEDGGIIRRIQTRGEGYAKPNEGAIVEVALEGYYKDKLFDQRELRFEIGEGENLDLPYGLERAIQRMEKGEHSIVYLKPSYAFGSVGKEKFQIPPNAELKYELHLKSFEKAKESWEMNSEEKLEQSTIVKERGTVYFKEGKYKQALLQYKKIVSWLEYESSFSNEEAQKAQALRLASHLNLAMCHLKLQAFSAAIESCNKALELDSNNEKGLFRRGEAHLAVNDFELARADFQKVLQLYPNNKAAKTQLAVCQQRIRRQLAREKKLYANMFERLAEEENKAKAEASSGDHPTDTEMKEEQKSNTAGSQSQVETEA

[8] = molecular target: T3, Peptidyl-prolyl cis-trans isomerase FKBP5; assay: Binding affinity to GST-tagged human FKBP51 expressed in Escherichia coli BL21 (DE3) immobilized in CM7 sensor chip assessed as equilibrium dissociation constant by SPR analysis

| SMILES | IC50 [1] [nM] | IC50 [2] [nM] | IC50 [3] [nM] | IC50 [4] [nM] | IC50 [5] [nM] | Activity (HEK293) [%] | IC50 [6] [nM] | Kd [7] [nM] | Kd [8] [nM] |
| --- | --- | --- | --- | --- | --- | --- | --- | --- | --- |
| Cc1sc(NC(=O)CCCC(=O)Nc2sc(C)c(C)c2C(N)=O)c(C(N)=O)c1C | 2500 | 1500 | 1200 | 10000 |  |  |  |  |  |
| COC(=O)c1c(NC(=O)CSc2nnc(-c3ccco3)c(-c3ccco3)n2)sc(C)c1C | 2500 |  | 5000 | 5000 | 1500 | 10 | 500 | 745000 | 48400 |
